Results reported in ChEMBL document CHEMBL1201862, “PubChem BioAssay data set” (2004).
The source made the active and inactive calls.

Key:
[1] = target: Melanin-concentrating hormone receptor 1 (Homo sapiens, UniProt Q99705); assay: Fluorescence-based counterscreen for antagonists of the G-protein coupled receptor 7 (GPR7): cell-based high throughput dose response assay to identify antagonists of the melanin-concentrating hormone receptor 1 (MCHR1).; format: functional
[2] = target: Neuropeptides B/W receptor type 1 (Homo sapiens, UniProt P48145); assay: Fluorescence-based dose response cell-based high throughput screening assay to identify antagonists of the G-protein coupled receptor 7 (GPR7). [Related pubchem assays: 1952 (Screening assay (GPR7 antagonists).), 1880 (Summary AID.)]; format: functional
SUMO-activating enzyme [3] = target: T1, SUMO-activating enzyme (Homo sapiens, UniProt Q9UBT2); assay: blockers of SAE1/SAE2–UBC9 SUMO transfer – biochemical, HTRF, uHTS, primary screen (AID 2006); format: protein-complex assay
SUMO-activating enzyme [4] = target: T1, SUMO-activating enzyme; assay: blockers of UBC9-mediated SUMO conjugation – biochemical, AlphaScreen, SUMOylation inhibitor project, confirmation (AID 2018); format: functional
Bcl-2-like protein 10 = target: T2, Bcl-2-like protein 10 (Homo sapiens, UniProt Q9HD36); assay: Bcl-B/TR3 peptide binding disruption – biochemical, fluorescence polarization, FITC-TR3 peptide, selectivity assay for Bfl-1 inhibitor project, primary screen (AID 748);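 note: fluorescence polarization from a fluorescein-labelled TR3 peptide binding purified Bcl-B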
T2 sequence (Q9HD36 whole entry): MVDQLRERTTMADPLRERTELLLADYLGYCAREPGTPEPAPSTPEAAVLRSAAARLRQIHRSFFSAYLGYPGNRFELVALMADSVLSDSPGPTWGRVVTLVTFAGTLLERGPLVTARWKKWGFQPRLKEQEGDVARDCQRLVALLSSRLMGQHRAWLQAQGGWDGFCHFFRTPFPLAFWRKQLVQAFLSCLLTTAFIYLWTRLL

Estrogen receptor beta [5] = target: T3, Estrogen receptor beta (Homo sapiens, UniProt Q92731); assay: blockers of SRC-3 recruitment to ERβ – biochemical, ELISA, streptavidin-HRP readout, orthogonal assay, confirmation (AID 1060)
Estrogen receptor beta [6] = target: T3, Estrogen receptor beta
Bcl-2-like protein 1 = Bcl-2-like protein 1 (Homo sapiens, UniProt Q07817); assay: blockers of BCLXL peptide binding – biochemical, fluorescence polarization, 1536-well, selectivity assay for MCL1 inhibitor project, dose response (AID 2218)
[7] = target: Induced myeloid leukemia cell differentiation protein Mcl-1 (Homo sapiens, UniProt Q07820); assay: blockers of MCL1 binding to BIM peptide – biochemical, fluorescence polarization, BIM-BH3 peptide, 1536-well, dose response (AID 2217)
Protein Rev = Protein Rev (Human immunodeficiency virus type 1 group M subtype B (isolate WMJ22)(HIV-1), UniProt P05866); assay: inhibitors of Rev protein–RRE RNA complex – biochemical, protein-RNA interaction, dose response (AID 842); parameters: species or system Human immunodeficiency virus 1
Nonstructural protein 1 = Nonstructural protein 1 (Influenza A virus, UniProt Q194T2); format: functional, Influenza A virus (A/California/07/2009(H1N1))
[8] = target: Matrix metalloproteinase-14 (Homo sapiens, UniProt P50281); assay: Dose Response confirmation of uHTS hits for a small molecule inhibitors of MT1-MMP activation in a fluorescence assay set 1.; format: functional
HT-1080 = assay: HT1080 cell viability loss – fluorescence readout (AID 620); format: functional, cell-based; conditions: Homo sapiens
[9] = target: Luciferin 4-monooxygenase (Photinus pyralis, UniProt P08659); assay: Counter Screen for Luciferase-based Assay Positives. [Related pubchem assays: 620, 618, 411 ]
[10] = bead-based luminescence quenchers, dual-tagged ARNT – biochemical, AlphaScreen, cherry-pick, artefact control for ARNT-TACC3 interaction inhibitor project, dose response (AID 651705); format: functional;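 note: AlphaScreen bead proximity signal that flags compounds interfering with the detection technology; potency reflects signal decrease which marks the compound as an assay artifact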
[11] = target: T4, Serine/threonine-protein phosphatase (Homo sapiens, UniProt Q9BPW0); assay: Counterscreen for inhibitors of PP1: fluorescence-based biochemical high throughput dose response assay to identify inhibitors of Protein Phosphatase 5 (PP5). [Related pubchem assays: 2034 (Summary (PP5 inhibitors)), 1987 (PP5 inhibitors in singlate), 2235 (PP1 inhibitors in singlate)]
T4 sequence (Q9BPW0 whole entry): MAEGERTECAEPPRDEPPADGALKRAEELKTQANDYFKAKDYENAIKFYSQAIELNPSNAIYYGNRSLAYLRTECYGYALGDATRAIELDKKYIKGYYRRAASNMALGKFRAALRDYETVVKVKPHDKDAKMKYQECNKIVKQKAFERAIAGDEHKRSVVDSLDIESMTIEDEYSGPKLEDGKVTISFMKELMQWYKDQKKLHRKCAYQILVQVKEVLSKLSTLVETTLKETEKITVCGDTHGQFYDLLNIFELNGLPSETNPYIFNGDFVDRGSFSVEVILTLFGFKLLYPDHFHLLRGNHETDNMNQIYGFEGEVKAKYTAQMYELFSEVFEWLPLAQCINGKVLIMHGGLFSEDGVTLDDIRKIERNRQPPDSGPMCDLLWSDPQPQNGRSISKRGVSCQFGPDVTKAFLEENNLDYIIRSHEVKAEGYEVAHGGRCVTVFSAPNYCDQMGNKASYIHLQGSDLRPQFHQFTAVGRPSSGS

[12] = target: Serine/threonine-protein phosphatase PP1-alpha catalytic subunit (Homo sapiens, UniProt P62136); assay: inhibition of protein phosphatase 1 activity – biochemical, fluorescence, dose response (AID 2403);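 note: phosphatase turnover of OMFP into fluorescent 3-O-methylfluorescein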
Sequence of Serine/threonine-protein phosphatase PP1-alpha catalytic subunit (P62136 whole entry): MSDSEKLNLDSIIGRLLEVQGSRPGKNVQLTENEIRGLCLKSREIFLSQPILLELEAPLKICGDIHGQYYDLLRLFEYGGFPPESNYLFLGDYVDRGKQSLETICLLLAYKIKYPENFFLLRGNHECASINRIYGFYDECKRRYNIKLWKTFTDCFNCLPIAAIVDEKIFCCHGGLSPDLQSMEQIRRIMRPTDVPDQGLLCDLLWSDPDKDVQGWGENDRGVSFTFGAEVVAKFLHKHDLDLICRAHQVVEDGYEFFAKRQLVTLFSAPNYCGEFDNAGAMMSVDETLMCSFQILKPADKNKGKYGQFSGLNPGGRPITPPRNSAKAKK

T1 sequence (Q9UBE0 whole entry): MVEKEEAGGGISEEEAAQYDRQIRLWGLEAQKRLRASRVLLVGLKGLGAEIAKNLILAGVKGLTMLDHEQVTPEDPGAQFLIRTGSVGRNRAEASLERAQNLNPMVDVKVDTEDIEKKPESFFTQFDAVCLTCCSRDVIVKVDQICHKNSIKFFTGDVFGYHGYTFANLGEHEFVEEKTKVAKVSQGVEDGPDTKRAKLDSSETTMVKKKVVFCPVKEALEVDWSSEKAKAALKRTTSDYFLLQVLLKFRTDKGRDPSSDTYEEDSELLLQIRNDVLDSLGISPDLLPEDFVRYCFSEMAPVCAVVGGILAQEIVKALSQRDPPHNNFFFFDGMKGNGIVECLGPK
T1 sequence (Q9UBT2 whole entry): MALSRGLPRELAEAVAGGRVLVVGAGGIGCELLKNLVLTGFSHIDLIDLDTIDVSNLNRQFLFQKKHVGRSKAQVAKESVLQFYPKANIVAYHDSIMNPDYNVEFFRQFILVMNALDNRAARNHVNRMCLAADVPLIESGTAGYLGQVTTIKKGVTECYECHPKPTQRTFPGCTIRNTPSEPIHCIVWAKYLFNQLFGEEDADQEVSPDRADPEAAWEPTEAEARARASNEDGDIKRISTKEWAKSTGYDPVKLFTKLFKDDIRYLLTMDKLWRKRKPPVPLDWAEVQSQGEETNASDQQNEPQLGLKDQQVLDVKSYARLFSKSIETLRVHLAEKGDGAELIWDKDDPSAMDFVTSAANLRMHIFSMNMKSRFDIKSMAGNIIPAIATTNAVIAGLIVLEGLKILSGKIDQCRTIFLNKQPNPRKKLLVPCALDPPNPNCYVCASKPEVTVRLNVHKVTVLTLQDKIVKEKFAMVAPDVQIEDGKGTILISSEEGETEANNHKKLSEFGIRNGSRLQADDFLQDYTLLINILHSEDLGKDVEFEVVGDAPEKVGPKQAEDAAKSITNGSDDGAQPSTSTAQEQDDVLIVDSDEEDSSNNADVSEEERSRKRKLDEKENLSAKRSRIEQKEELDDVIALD
T3 sequence (Q92731 whole entry): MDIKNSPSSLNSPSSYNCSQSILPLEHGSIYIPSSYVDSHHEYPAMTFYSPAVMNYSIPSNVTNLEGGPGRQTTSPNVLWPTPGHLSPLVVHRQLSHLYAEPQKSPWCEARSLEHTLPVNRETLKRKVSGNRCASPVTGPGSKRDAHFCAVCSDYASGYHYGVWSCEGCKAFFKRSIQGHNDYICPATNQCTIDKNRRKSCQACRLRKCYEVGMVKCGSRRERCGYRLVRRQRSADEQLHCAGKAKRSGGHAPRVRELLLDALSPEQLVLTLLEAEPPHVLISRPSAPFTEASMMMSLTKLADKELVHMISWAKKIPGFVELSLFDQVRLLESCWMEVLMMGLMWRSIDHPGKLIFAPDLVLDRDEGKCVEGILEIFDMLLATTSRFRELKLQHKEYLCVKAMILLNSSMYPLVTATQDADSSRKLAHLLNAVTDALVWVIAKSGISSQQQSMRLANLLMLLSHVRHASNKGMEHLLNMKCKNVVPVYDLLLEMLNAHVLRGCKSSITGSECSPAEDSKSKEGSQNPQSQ
Sequence of Induced myeloid leukemia cell differentiation protein Mcl-1 (Q07820 whole entry): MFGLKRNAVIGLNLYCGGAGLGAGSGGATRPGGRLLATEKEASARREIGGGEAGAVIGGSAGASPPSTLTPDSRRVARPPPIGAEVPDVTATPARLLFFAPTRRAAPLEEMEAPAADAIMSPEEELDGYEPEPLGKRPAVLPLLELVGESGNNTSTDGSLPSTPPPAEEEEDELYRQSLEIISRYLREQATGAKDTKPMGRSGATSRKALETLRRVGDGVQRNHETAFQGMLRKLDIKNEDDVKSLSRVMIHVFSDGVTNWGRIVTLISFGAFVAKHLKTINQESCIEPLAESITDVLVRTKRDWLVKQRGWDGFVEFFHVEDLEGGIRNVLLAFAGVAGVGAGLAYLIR
Sequence of Luciferin 4-monooxygenase (P08659 whole entry): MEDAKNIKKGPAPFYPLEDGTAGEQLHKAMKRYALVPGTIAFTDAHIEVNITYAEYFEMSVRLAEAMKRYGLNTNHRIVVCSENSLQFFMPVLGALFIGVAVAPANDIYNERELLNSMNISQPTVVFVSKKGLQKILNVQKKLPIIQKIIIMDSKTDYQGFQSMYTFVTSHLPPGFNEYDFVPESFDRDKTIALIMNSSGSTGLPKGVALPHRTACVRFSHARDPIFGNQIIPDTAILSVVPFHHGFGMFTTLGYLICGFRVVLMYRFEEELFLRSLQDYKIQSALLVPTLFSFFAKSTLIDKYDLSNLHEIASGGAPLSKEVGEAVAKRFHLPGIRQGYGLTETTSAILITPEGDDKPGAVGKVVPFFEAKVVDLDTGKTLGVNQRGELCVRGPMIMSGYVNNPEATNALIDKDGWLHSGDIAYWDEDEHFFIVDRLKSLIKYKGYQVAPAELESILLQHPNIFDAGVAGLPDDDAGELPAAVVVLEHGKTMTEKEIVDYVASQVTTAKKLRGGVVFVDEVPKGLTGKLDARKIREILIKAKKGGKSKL
Sequence of Nonstructural protein 1 (Q194T2 whole entry): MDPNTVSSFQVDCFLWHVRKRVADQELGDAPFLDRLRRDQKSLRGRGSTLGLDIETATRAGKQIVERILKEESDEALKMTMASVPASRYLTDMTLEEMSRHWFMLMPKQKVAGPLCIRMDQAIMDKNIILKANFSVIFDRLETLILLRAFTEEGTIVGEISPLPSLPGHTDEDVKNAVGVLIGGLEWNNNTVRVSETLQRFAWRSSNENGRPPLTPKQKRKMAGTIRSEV
Sequence of Neuropeptides B/W receptor type 1 (P48145 whole entry): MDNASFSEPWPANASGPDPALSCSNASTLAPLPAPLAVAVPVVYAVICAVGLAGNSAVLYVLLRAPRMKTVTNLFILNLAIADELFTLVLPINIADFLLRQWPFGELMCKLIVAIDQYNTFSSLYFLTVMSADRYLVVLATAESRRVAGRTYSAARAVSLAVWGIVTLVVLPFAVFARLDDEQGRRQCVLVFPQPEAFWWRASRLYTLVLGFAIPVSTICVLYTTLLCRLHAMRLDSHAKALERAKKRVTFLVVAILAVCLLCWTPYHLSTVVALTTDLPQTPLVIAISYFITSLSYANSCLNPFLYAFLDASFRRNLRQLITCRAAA
Sequence of Melanin-concentrating hormone receptor 1 (Q99705 whole entry): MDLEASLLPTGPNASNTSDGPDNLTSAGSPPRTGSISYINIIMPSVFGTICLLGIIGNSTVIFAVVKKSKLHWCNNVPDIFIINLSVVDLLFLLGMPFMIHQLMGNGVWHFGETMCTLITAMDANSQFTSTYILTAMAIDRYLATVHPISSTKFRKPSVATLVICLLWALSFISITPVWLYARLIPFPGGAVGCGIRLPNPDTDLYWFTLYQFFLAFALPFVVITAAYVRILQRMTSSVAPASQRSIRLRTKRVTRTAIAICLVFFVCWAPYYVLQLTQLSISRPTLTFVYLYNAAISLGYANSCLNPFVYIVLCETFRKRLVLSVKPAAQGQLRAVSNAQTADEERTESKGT
Sequence of Bcl-2-like protein 1 (Q07817 whole entry): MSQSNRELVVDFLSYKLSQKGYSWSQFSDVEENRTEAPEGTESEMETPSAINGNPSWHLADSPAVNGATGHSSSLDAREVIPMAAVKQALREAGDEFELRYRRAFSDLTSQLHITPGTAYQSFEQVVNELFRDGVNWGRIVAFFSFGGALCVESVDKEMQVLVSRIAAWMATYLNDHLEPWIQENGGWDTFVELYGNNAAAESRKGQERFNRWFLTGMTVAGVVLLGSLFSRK
Sequence of Protein Rev (P05866 whole entry): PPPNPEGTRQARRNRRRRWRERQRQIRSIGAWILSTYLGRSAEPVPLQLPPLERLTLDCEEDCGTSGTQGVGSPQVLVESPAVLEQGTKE

SMILES: O=C(Oc1ccc(C(=S)N2CCOCC2)cc1)c1ccccc1
- IC50 [1]: > 14.6 µM (not active)
- IC50 [2]: > 43.8 µM (not active)

SMILES: O=c1nc2s/c(=C\c3ccco3)c(=O)n2nc1Cc1ccc(F)cc1
- IC50 (SUMO-activating enzyme [3]): 38.3 µM (active)
- IC50 (SUMO-activating enzyme [4]): 7.36 µM (active)
- IC50 (Bcl-2-like protein 10): 14.7 µM (active)
- IC50 (Estrogen receptor beta [5]): 0.987 µM (not active)
- IC50 (Estrogen receptor beta [6]): 2.35 µM (active)
- IC50 (Bcl-2-like protein 1): > 109 µM (not active)
- IC50 [7]: > 109 µM (not active)

SMILES: CC1=NN(c2ccccc2)C(=O)C1N=Nc1ccc(N)cc1 (configuration not stated)
- IC50 (Protein Rev): > 79.4 µM (not active)
- IC50 (Nonstructural protein 1): 10.5 µM (active)
- IC50 [8]: > 80 µM (inactive)

SMILES: c1ccc(-c2ccc(-c3nc(-c4ccncc4)no3)cc2)cc1
- EC50 (HT-1080): > 50 µM (not active)
- EC50 [9]: 4.37 µM (active)

SMILES: COc1cc(NS(=O)(=O)c2ccc(Nc3nc(-c4ccccn4)cs3)cc2)nc(OC)n1
- AC50 [10]: 88.3 µM (active)
- IC50 [11]: > 67 µM (not active)
- IC50 [12]: 3.63 µM (active)
